The source made the active and inactive calls. No cut-off for these calls is given here.
Experiments:
[1] = biological target: Epidermal growth factor receptor (Homo sapiens) (UniProt P00533); assay: Binding affinity to partial length wild type human EGFR (R669 to V1011 residues) expressed in bacterial expression system assessed as fraction of unbound kinase to substrate at 0.1 uM after 1 hr by KinomeScan assay
[2] = biological target: Hepatocyte growth factor receptor (Homo sapiens) (UniProt P08581); assay: Binding affinity to human MET (D1010 to S1367 residues) expressed in bacterial expression system assessed as fraction of unbound kinase to substrate at 1 uM after 1 hr by KinomeScan assay
Homo sapiens = species: Homo sapiens; assay: Selectivity ratio of IC50 for recombinant GST-tagged human Tyro3 (451 to 890 residues) cytoplasmic domain to IC50 for recombinant His-tagged human Axl (473 to end residues) cytoplasmic domain
[3] = biological target: Tyrosine-protein kinase receptor UFO (Homo sapiens) (UniProt P30530); assay: Binding affinity to human AXL (R497 to Y821 residues) expressed in bacterial expression system assessed as fraction of unbound kinase to substrate at 10 uM after 1 hr by KinomeScan assay
[4] = biological target: T1, Tyrosine-protein kinase receptor TYRO3 (Homo sapiens) (UniProt Q06418); assay: Inhibition of recombinant GST-tagged human Tyro3 (451 to 890 residues) cytoplasmic domain expressed in Baculovirus expression system using poly (Glu-Ala-Tyr) peptide as substrate after 1.5 hrs by ELISA
T1 sequence (whole entry): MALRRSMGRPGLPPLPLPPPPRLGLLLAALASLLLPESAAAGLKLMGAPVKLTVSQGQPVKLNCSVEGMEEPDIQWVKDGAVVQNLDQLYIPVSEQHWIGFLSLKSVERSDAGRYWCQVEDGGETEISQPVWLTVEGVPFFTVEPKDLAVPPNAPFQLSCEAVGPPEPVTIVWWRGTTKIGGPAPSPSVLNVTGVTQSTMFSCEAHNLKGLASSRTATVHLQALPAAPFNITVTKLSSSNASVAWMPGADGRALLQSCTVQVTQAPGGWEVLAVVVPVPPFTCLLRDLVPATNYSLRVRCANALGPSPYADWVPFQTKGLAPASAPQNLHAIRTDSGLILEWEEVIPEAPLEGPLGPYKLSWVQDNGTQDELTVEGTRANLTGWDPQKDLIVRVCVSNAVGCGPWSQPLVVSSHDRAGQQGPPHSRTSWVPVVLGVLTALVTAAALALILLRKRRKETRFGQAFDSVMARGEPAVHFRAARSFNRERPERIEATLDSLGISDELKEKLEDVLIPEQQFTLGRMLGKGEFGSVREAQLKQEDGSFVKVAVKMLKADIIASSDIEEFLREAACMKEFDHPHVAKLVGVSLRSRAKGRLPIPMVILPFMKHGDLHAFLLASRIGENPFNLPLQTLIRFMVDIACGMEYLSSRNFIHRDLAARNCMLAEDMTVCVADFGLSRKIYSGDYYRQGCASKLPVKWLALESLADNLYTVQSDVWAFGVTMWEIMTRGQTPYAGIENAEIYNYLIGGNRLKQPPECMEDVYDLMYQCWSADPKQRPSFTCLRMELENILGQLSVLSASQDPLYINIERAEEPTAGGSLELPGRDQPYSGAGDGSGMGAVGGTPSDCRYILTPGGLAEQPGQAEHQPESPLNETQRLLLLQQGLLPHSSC

[5] = biological target: T1, Tyrosine-protein kinase receptor TYRO3 (Homo sapiens); assay: Binding affinity to wild-type human partial length TYRO3 (S497 to T814 residues) expressed in bacterial expression system assessed as fraction of unbound kinase to substrate at 10 uM after 1 hr by KinomeScan assay
[6] = biological target: Cyclin-dependent kinase 2 (Homo sapiens) (UniProt P24941); assay: Binding affinity to wild-type human full length CDK2 (M1 to L298 residues) expressed in bacterial expression system assessed as fraction of unbound kinase to substrate at 10 uM after 1 hr by KinomeScan assay
[7] = biological target: Serine/threonine-protein kinase B-raf (Homo sapiens) (UniProt P15056); assay: Binding affinity to wild-type human partial length BRAF (S429 to E741 residues) expressed in mammalian expression system assessed as fraction of unbound kinase to substrate at 0.1 uM after 1 hr by KinomeScan assay
[8] = biological target: Cyclin-dependent kinase 2 (Homo sapiens) (UniProt P24941); assay: Binding affinity to wild-type human full length CDK2 (M1 to L298 residues) expressed in bacterial expression system assessed as fraction of unbound kinase to substrate at 0.1 uM after 1 hr by KinomeScan assay
[9] = biological target: Tyrosine-protein kinase receptor UFO (Homo sapiens) (UniProt P30530); assay: Binding affinity to human AXL (R497 to Y821 residues) expressed in bacterial expression system assessed as fraction of unbound kinase to substrate at 1 uM after 1 hr by KinomeScan assay
[10] = biological target: T2, Aurora kinase A (Homo sapiens) (UniProt O14965); assay: Binding affinity to wild-type human partial length AURKA (E122 to K401 residues) expressed in mammalian expression system assessed as fraction of unbound kinase to substrate at 10 uM after 1 hr by KinomeScan assay
T2 sequence (whole entry): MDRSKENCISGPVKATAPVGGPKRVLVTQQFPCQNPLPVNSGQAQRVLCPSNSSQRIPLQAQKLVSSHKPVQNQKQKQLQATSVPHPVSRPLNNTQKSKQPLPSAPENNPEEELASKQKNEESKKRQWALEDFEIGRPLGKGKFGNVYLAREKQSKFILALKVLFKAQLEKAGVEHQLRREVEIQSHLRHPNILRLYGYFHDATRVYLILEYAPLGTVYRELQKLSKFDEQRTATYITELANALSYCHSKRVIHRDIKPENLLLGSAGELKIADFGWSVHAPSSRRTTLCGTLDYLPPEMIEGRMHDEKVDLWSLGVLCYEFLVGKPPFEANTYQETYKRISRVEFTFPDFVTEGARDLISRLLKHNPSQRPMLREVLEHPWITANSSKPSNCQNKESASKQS

RT-112 = assay: Antiproliferative activity against human RT112 cells after 72 hrs by CellTiter-Glo assay; format: functional, cell-based
[11] = biological target: Hepatocyte growth factor receptor (Homo sapiens) (UniProt P08581); assay: Binding affinity to human MET (D1010 to S1367 residues) expressed in bacterial expression system assessed as fraction of unbound kinase to substrate at 10 uM after 1 hr by KinomeScan assay
[12] = biological target: T1, Tyrosine-protein kinase receptor TYRO3 (Homo sapiens); assay: Binding affinity to wild-type human partial length TYRO3 (S497 to T814 residues) expressed in bacterial expression system assessed as fraction of unbound kinase to substrate at 1 uM after 1 hr by KinomeScan assay
[13] = biological target: Serine/threonine-protein kinase B-raf (Homo sapiens) (UniProt P15056); assay: Binding affinity to wild-type human partial length BRAF (S429 to E741 residues) expressed in mammalian expression system assessed as fraction of unbound kinase to substrate at 1 uM after 1 hr by KinomeScan assay
[14] = biological target: Glycogen synthase kinase-3 beta (Homo sapiens) (UniProt P49841); assay: Binding affinity to full length wild type human GSK3beta (M1 to T433 residues) expressed in mammalian expression system assessed as fraction of unbound kinase to substrate at 1 uM after 1 hr by KinomeScan assay
[15] = Drug localization in nucleus of human MGHU3 cells at 10 uM after 24 hrs by NanoSIMS analysis; format: ADME, subcellular; conditions: mghu3, 24 h
[16] = Drug localization in nucleus of human A549 cells at 10 uM after 24 hrs by NanoSIMS analysis; format: ADME, subcellular; conditions: a549, 24 h

Chain of Tyrosine-protein kinase receptor UFO (Homo sapiens) (P30530 whole entry, the tested form may be a part): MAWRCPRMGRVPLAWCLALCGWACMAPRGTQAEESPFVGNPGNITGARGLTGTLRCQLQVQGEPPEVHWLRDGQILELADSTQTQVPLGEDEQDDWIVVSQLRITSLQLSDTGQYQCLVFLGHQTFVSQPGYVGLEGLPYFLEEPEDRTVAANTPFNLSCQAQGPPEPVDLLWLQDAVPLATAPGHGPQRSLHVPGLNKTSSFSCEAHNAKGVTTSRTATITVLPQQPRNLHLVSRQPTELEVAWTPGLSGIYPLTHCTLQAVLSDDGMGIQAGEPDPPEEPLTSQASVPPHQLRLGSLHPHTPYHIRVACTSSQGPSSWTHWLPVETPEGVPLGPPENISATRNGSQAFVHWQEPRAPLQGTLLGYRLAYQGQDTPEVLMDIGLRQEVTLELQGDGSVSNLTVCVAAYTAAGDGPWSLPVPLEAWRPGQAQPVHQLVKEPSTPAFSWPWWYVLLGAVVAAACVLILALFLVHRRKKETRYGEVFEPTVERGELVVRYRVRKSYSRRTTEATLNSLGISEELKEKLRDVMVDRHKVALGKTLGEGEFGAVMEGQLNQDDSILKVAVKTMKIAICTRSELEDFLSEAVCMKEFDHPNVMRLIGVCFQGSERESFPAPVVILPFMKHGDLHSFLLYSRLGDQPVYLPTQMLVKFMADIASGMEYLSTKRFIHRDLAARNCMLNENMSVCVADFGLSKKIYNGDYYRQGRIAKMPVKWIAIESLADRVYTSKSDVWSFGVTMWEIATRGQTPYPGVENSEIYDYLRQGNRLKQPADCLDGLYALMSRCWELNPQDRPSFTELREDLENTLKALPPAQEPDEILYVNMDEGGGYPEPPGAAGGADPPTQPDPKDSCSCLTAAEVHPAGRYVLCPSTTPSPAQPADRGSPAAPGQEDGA
Chain of Hepatocyte growth factor receptor (Homo sapiens) (P08581 whole entry, the tested form may be a part): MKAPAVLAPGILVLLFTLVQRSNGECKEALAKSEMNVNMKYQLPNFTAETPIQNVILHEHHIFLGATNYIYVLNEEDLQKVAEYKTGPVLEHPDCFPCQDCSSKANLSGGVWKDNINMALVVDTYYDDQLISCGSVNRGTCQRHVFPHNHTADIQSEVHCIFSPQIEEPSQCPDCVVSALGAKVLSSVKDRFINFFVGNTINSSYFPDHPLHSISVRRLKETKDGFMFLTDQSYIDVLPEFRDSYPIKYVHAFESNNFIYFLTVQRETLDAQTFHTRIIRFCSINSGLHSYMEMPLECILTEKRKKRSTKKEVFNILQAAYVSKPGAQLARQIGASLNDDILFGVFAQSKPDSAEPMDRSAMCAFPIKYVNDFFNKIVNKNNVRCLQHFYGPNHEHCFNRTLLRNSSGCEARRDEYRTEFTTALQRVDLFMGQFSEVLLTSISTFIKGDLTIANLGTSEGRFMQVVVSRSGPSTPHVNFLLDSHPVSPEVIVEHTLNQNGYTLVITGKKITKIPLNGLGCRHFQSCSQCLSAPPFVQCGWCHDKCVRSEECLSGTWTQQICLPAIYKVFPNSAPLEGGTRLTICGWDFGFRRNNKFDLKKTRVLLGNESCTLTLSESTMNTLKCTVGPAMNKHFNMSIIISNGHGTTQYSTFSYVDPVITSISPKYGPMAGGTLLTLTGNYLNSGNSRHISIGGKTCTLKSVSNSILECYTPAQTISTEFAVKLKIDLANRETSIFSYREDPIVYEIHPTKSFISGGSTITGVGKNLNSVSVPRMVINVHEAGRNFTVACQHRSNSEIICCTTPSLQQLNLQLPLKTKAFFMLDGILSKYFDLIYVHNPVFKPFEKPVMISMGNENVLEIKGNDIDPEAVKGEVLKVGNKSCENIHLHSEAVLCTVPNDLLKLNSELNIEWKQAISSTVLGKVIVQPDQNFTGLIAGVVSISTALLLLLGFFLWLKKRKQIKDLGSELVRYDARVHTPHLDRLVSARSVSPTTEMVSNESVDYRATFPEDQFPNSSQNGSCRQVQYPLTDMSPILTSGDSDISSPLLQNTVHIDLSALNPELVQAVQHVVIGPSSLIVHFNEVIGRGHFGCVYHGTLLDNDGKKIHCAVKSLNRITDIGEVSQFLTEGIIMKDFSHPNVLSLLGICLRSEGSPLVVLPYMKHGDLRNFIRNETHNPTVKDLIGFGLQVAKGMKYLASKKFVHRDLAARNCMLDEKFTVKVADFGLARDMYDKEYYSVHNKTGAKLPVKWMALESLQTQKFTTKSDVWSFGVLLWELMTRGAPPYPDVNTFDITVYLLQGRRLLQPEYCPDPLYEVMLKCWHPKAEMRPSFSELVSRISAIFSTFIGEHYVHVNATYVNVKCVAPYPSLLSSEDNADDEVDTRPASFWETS
Chain of Epidermal growth factor receptor (Homo sapiens) (P00533 whole entry, the tested form may be a part): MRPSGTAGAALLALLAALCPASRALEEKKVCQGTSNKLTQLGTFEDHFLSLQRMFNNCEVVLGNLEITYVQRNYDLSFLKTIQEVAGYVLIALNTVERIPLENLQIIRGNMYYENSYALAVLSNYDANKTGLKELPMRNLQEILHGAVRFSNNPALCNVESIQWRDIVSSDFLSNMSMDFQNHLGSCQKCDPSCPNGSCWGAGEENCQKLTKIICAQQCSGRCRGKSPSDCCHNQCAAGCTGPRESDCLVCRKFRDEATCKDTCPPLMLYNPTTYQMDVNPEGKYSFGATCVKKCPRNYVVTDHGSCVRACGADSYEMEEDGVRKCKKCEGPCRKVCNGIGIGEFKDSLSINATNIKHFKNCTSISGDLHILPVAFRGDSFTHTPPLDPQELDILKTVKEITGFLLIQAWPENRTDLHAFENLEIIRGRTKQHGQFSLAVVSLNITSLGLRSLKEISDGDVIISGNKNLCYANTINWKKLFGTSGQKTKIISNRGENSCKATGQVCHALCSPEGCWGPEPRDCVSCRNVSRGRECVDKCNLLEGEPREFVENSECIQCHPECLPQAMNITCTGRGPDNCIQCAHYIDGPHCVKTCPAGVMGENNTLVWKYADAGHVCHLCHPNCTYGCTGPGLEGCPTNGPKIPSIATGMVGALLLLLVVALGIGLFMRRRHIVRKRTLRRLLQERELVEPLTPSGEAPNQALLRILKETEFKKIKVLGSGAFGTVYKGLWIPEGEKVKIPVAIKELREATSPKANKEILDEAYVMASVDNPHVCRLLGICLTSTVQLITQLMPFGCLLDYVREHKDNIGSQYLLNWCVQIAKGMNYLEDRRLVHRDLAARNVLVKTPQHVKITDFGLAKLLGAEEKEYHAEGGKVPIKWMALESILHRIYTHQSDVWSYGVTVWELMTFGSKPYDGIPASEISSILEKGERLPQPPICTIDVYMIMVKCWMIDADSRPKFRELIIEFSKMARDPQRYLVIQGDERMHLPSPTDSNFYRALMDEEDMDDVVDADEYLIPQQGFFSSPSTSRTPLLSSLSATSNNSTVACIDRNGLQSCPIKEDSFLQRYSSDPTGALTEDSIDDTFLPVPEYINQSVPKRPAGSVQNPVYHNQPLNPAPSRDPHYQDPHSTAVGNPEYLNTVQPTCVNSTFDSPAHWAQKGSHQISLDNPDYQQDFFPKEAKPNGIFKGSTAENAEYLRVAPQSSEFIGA
Chain of Glycogen synthase kinase-3 beta (Homo sapiens) (P49841 whole entry, looked up, the tested form may be a part): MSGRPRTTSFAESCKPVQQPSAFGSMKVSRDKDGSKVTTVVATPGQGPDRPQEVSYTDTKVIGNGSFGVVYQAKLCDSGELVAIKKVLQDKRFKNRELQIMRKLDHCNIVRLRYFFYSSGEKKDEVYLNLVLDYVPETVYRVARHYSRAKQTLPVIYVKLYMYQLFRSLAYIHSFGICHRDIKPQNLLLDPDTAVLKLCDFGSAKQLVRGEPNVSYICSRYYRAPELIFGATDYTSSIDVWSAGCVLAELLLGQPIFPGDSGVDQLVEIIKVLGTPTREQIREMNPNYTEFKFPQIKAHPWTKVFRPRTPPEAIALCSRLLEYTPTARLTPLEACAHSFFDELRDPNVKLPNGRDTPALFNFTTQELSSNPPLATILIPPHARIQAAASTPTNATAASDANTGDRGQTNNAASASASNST
Chain of Serine/threonine-protein kinase B-raf (Homo sapiens) (P15056 whole entry, the tested form may be a part): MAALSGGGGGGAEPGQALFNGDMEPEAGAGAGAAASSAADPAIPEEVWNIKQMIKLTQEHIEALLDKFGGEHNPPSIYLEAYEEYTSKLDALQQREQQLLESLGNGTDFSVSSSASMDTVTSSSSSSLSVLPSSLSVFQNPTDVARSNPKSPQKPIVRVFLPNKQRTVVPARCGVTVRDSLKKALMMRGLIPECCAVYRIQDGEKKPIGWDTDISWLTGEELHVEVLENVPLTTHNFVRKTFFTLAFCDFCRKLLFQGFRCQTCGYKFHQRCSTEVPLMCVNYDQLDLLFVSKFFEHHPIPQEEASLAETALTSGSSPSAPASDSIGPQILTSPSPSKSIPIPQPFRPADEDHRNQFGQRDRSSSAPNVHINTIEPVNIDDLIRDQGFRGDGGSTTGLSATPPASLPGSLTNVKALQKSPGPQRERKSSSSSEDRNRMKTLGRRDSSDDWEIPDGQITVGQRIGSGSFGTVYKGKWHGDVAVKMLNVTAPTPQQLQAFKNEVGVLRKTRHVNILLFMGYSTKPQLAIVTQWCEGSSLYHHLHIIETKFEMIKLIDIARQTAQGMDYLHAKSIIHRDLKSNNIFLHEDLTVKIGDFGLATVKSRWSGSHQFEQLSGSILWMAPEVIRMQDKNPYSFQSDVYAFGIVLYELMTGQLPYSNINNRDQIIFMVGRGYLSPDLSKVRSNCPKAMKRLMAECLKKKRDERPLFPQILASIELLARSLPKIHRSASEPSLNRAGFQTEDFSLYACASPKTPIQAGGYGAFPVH

Row | SMILES | Activity [1] | Activity [2] | Ratio IC50 (Homo sapiens) | Activity [3] | inhibition [4] | Activity [5] | Activity [6] | Activity [7] | Activity [8] | Activity [9] | Activity [10] | Activity (RT-112) | Activity [11] | Activity [12] | Activity [13] | Activity [14] | Drug uptake [15] | Drug uptake [16]
1 | O=C(Nc1ccc(Oc2ccnc3[nH]cnc23)c(F)c1)c1cccn(-c2ccc(F)cc2)c1=O | 0% | 96% | 120 to 900 | 93.3% | Active | 99.8% | 48% | 9% | 0% | 90.7% | 13% | inactive | 97% | 81% | 12% | 5% |  | 
2 | CC(C)c1nc2c(Oc3ccc(NC(=O)c4cccn(-c5ccc(F)cc5)c4=O)cc3F)ccnc2[nH]1 | 2% | 96.7% |  | 89% | inactive | 92.4% | 99.7% | 0% | 41% | 90% | 12% | inactive | 96.6% | 39% | 8% | 0% | Active | Active
3 | O=C(Nc1ccc(Oc2c(Br)cnc3[nH]cnc23)c(F)c1)c1cccn(-c2ccc(F)cc2)c1=O | 0% | 82% |  | 90.4% | inactive | 10% | 32% | 0% | 0% | 52% | 45% |  | 96.4% | 11% | 0% | 1% |  | 
4 | Cc1cnc2[nH]cnc2c1Oc1ccc(NC(=O)c2cccn(-c3ccc(F)cc3)c2=O)cc1F | 1% | 94.5% |  | 90.1% | inactive | 5% | 3% | 0% | 0% | 67% | 41% | inactive | 96.2% | 0% | 2% | 5% |  | 

Source: ChEMBL document CHEMBL4261615, “Design, synthesis, biological evaluation and cellular imaging of imidazo[4,5-b]pyridine derivatives as potent and selective TAM inhibitors” (Bioorg Med Chem, 2018)
